In patent US20230295197A1, “STAT5 and STAT6 Degraders and Uses Thereof” (REGENTS OF THE UNIVERSITY OF MICHICAN, priority 2022, published 2023):
Where two headings read alike, the source gives them in different places.

Target: T1, STAT6 (Homo sapiens, UniProt P42226)
T1 construct: endogenous in cells; host or cells: MOLM-16, KU-812, SKNO1, MB231, L1236
T1 sequence (P42226 1-847): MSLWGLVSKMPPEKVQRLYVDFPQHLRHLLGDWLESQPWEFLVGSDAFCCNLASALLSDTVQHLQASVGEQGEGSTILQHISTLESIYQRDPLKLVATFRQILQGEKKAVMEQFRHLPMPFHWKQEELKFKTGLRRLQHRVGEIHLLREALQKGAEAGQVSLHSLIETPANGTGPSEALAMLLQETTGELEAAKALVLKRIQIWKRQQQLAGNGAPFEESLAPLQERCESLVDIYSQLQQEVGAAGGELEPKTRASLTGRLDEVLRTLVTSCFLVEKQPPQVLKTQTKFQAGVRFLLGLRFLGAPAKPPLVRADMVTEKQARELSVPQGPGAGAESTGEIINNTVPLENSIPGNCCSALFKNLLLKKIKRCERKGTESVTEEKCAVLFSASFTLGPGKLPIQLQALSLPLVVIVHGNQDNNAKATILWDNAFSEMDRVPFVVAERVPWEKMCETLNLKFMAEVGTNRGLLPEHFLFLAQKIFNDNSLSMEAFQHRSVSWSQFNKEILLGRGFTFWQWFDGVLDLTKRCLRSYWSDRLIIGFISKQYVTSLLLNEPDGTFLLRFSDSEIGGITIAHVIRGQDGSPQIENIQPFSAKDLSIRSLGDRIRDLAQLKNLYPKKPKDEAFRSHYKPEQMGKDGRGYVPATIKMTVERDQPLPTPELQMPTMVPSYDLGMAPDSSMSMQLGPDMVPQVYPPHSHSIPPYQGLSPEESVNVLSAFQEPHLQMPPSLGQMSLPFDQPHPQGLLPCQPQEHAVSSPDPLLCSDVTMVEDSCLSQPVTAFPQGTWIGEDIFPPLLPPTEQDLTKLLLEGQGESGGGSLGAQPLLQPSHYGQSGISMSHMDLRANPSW
Test: Immunoblotting (Western blot) analysis of STAT6 degradation efficiency of degraders in treated cells
Assay type: cell-based
Protocol: Evaluation of the degradation efficiency of degraders may be accomplished by immunoblotting analysis. The representative general protocol is the following:
Cells are maintained in the appropriate culture medium with 10% FBS at 37° C. and an atmosphere of 5% CO2. Cell lines are used within three months of thawing fresh vials. Cells are lysed 1× Cell Lysis Buffer (Cell Signaling Technology, #9803), resolved by SDS-PAGE NuPAGE gel (Thermo Fisher Scientific), and transferred to a PVDF membrane (Millipore). Membranes are blocked using Odyssey TBS Blocker Buffer (LI-COR). IRDye 680RD and 800CW Dye-labeled secondary antibodies (LI-COR) are used. The washed membranes are scanned using Odyssey CLx imager (LI-COR). The intensity of Western blot signaling is quantitated using the Odyssey software. Primary antibodies used are: STAT5 Rabbit mAb (Cell Signaling Technology, #94205), STAT6 Rabbit mAb (Cell Signaling Technology, #5397) and GAPDH mouse monoclonal antibody (Santa Cruz Biotechnology, sc-47724).
To evaluate the degradation efficiency of degraders, immunoblotting analysis was performed. The general protocol is the following.
About 1 million cells for each data point were treated with compounds at indicated concentrations and durations. Untreated and treated cells in cell culture medium were transferred into tubes, followed by centrifugation at 3,000 rpm and 4° C. for 6 min Supernatants were removed from tubes and radioimmunoprecipitation assay (RIPA) lysis buffer supplemented with 1% protease inhibitor cocktail (Fisher Scientific cat. PI87786) and phosphatase inhibitor (Roche cat. 04906837001) were added to tubes containing the remaining cell pellets. The tubes were then left on ice for 30 min and placed in a −80° C. freezer. Subsequently they were thawed in 37° C. water, then centrifuged at 14,000 rpm for 15 min and the cell lysates transferred to new tubes. The concentration of total proteins in each tube was calculated using the Pierce BCA protein Assay kit (cat. 23225). Based on the calculated protein concentration, cell lysates containing approximately the same amount of proteins were transferred to new tubes, then distilled water and 4× Protein Sample Loading Buffer for Western Blots (LI-COR cat. 928-40004) supplemented with 20% of mercaptoethanol (Sigma Aldrich cat. M6250) were added on ice. The cell lysates were then reduced and denatured at 95° C. for 5 min. From the tubes containing cell lysates an equal amount of protein samples (20-40 μg) was loaded into precast 8%, 10%, 4%-12%, or 4%-20% Tris-glycine gels (Novex) filled with Tris-glycine SDS running buffer. After the proteins were resolved, they were transferred onto Immobile-FL PVDF Membrane (Millipore Sigma cat. IPFL00010), using Mini Trans-Blot Electrophoretic Transfer Cell (Bio-Rad 1703930). The membranes were blocked with Intercept Blocking Buffer (LI-COR cat. 927-70001) in LI-COR Western Blot boxes for 1 h at rt. The membranes were washed with 1× Tris-buffered saline-Tween-20 (TBST, 1× solution was made from 20×TBST solution, ThermoFisher Scientific cat. 28360) for 5 min 4 times. The membranes were incubated overnight at 4° C. in Intercept Blocking Buffer supplemented with primary antibodies (normally antibody:buffer 1:1000) and Tween-20. The membranes were washed with TBST for 5 min 4 times and were incubated with Intercept Blocking Buffer supplemented with IRDye 800CE Secondary Antibodies, IRDye 680RD Secondary Antibodies (LI-COR biosciences), Tween-20, and 10% SDS solution, for 1 h at rt. The membranes were then washed with TBST for 5 min 4 times and rinsed with deionized water before drying and scanning with Odyssey Dlx Amazing System (LI-COR). The immunoblots were finally quantified by the software.

[1] = MOLM-16 cells, class symbols, read-out: DC50 S6 MOLM-16
[2] = L1236 cells, read-out: DC50 S6 L1236

| DC50 (MOLM-16 cells, numeric bound, read-out: DC50 S6 MOLM-16) | Structure (SMILES) | DC50 [1] | DC50 [2] |
| --- | --- | --- | --- |
|  | CC(C)(C)[C@H](NC(=O)c1cc2cc(C(F)(F)P(=O)(O)O)ccc2s1)C(=O)N1CCN(C(=O)CC(=O)NCCCC#Cc2cccc3c2C(=O)N(C2CCC(=O)NC2=O)C3=O)C[C@H]1C(=O)N1CCO[C@H](c2ccccc2)C1 (stereo partly drawn) [Compound 511, ((2-(((2S)-1-((2S)-4-(3-((5-(2-(2,6-dioxopiperidin-3-yl)-1,3-dioxoisoindolin-4-yl)pent-4-yn-1-yl)amino)-3-oxopropanoyl)-2-((R)-2-phenylmorpholine-4-carbonyl)piperazin-1-yl)-3,3-dimethyl-1-oxobutan-2-yl)carbamoyl)benzo[b]thiophen-5-yl)difluoromethyl)phosphonic acid] | 1 to 10 µM |  |
|  | CC(C)(C)[C@H](NC(=O)c1cc2cc(C(F)(F)P(=O)(O)O)ccc2s1)C(=O)N1Cc2cc(OCC(=O)NCCCCCCCCCC#Cc3ccc4c(c3)C(=O)N(C3CCC(=O)NC3=O)C4=O)ccc2C[C@H]1C(=O)N1CCO[C@H](c2ccccc2)C1 (stereo partly drawn) [Compound 548, ((2-(((2S)-1-((3S)-7-(2-((11-(2-(2,6-dioxopiperidin-3-yl)-1,3-dioxoisoindolin-5-yl)undec-10-yn-1-yl)amino)-2-oxoethoxy)-3-((R)-2-phenylmorpholine-4-carbonyl)-3,4-dihydroisoquinolin-2(1H)-yl)-3,3-dimethyl-1-oxobutan-2-yl)carbamoyl)benzo[b]thiophen-5-yl)difluoromethyl)phosphonic acid] | > 10 µM |  |
|  | Cc1ncsc1-c1ccc([C@H](C)NC(=O)[C@@H]2C[C@@H](O)CN2C(=O)[C@@H](NC(=O)CCCCNC(=O)CC(=O)N2CCN(C(=O)[C@@H](NC(=O)c3cc4cc(C(F)(F)P(=O)(O)O)ccc4s3)C(C)(C)C)[C@H](C(=O)N3CCC[C@H](c4ccccc4)C3)C2)C(C)(C)C)cc1 [Compound 455, (difluoro(2-(((S)-1-((S)-4-(3-((5-(((S)-1-((2S,4R)-4-hydroxy-2-(((S)-1-(4-(4-methylthiazol-5-yl)phenyl)ethyl)carbamoyl)pyrrolidin-1-yl)-3,3-dimethyl-1-oxobutan-2-yl)amino)-5-oxopentyl)amino)-3-oxopropanoyl)-2-((R)-3-phenylpiperidine-1-carbonyl)piperazin-1-yl)-3,3-dimethyl-1-oxobutan-2-yl)carbamoyl)benzo[b]thiophen-5-yl)methyl)phosphonic acid] | > 10 µM | > 10 µM |
|  | Cc1ncsc1-c1ccc([C@H](C)NC(=O)[C@@H]2C[C@@H](O)CN2C(=O)[C@@H](NC(=O)CCCCCCCCCNC(=O)CO[C@H]2C[C@@H](C(=O)N3CCC[C@H](c4ccccc4)C3)N(C(=O)[C@@H](NC(=O)c3cc4cc(C(F)(F)P(=O)(O)O)ccc4s3)C(C)(C)C)C2)C(C)(C)C)cc1 [Compound 442, (difluoro(2-(((S)-1-((2S,4S)-4-(2-((10-(((S)-1-((2S,4R)-4-hydroxy-2-(((S)-1-(4-(4-methylthiazol-5-yl)phenyl)ethyl)carbamoyl)pyrrolidin-1-yl)-3,3-dimethyl-1-oxobutan-2-yl)amino)-10-oxodecyl)amino)-2-oxoethoxy)-2-((R)-3-phenylpiperidine-1-carbonyl)pyrrolidin-1-yl)-3,3-dimethyl-1-oxobutan-2-yl)carbamoyl)benzo[b]thiophen-5-yl)methyl)phosphonic acid] | > 10 µM | > 10 µM |
|  | Cc1ncsc1-c1ccc([C@H](C)NC(=O)[C@@H]2C[C@@H](O)CN2C(=O)[C@@H](NC(=O)CCCNC(=O)COc2ccc3c(c2)CN(C(=O)[C@@H](NC(=O)c2cc4cc(C(F)(F)P(=O)(O)O)ccc4s2)C(C)(C)C)[C@H](C(=O)N2CCO[C@H](c4ccccc4)C2)C3)C(C)(C)C)cc1 [Compound 463, (difluoro(2-(((S)-1-((S)-7-(2-((4-(((S)-1-((2S,4R)-4-hydroxy-2-(((S)-1-(4-(4-methylthiazol-5-yl)phenyl)ethyl)carbamoyl)pyrrolidin-1-yl)-3,3-dimethyl-1-oxobutan-2-yl)amino)-4-oxobutyl)amino)-2-oxoethoxy)-3-((R)-2-phenylmorpholine-4-carbonyl)-3,4-dihydroisoquinolin-2(1H)-yl)-3,3-dimethyl-1-oxobutan-2-yl)carbamoyl)benzo[b]thiophen-5-yl)methyl)phosphonic acid] | > 10 µM | > 10 µM |
|  | CC(C)(C)[C@H](NC(=O)c1cc2cc(C(F)(F)P(=O)(O)O)ccc2s1)C(=O)N1C[C@@H](OCC(=O)NCCC#Cc2cccc3c2C(=O)N(C2CCC(=O)NC2=O)C3=O)C[C@H]1C(=O)N1CCC[C@H](c2ccccc2)C1 (stereo partly drawn) [Compound 495, ((2-(((2S)-1-((2S,4S)-4-(2-((4-(2-(2,6-dioxopiperidin-3-yl)-1,3-dioxoisoindolin-4-yl)but-3-yn-1-yl)amino)-2-oxoethoxy)-2-((R)-3-phenylpiperidine-1-carbonyl)pyrrolidin-1-yl)-3,3-dimethyl-1-oxobutan-2-yl)carbamoyl)benzo[b]thiophen-5-yl)difluoromethyl)phosphonic acid] | > 10 µM |  |
|  | CC(C)(C)[C@H](NC(=O)c1cc2cc(C(F)(F)P(=O)(O)O)ccc2s1)C(=O)N1CCN(C(=O)CC(=O)NCCCCCCCCC#Cc2cccc3c2C(=O)N(C2CCC(=O)NC2=O)C3=O)C[C@H]1C(=O)N1CCC[C@H](c2ccccc2)C1 (stereo partly drawn) [Compound 531, ((2-(((2S)-1-((2S)-4-(3-((10-(2-(2,6-dioxopiperidin-3-yl)-1,3-dioxoisoindolin-4-yl)dec-9-yn-1-yl)amino)-3-oxopropanoyl)-2-((R)-3-phenylpiperidine-1-carbonyl)piperazin-1-yl)-3,3-dimethyl-1-oxobutan-2-yl)carbamoyl)benzo[b]thiophen-5-yl)difluoromethyl)phosphonic acid] | > 10 µM |  |
| > 0.3 µM | CC(C)(C)[C@H](NC(=O)c1cc2cc(C(F)(F)P(=O)(O)O)ccc2s1)C(=O)N1C[C@@H](OCCN2CCC(Nc3cccc4c3CN(C3CCC(=O)NC3=O)C4=O)CC2)C[C@H]1C(=O)N1CCO[C@H](c2ccccc2)C1 (stereo partly drawn) [Compound 605, ((2-(((2S)-1-((2S,4S)-4-(2-(4-((2-(2,6-dioxopiperidin-3-yl)-1-oxoisoindolin-4-yl)amino)piperidin-1-yl)ethoxy)-2-((R)-2-phenylmorpholine-4-carbonyl)pyrrolidin-1-yl)-3,3-dimethyl-1-oxobutan-2-yl)carbamoyl)benzo[b]thiophen-5-yl)difluoromethyl)phosphonic acid] |  |  |
